Results as given in patent publication US20220306617A1, “SUBSTITUTED 1,3-PHENYL HETEROARYL DERIVATIVES AND THEIR USE IN THE TREATMENT OF DISEASE” (NOVARTIS AG, priority 2019, published 2022).

Biological target: T1, abc isoform of human TMEM16A channel expressed in CHO cells (Homo sapiens, UniProt Q5XXA6, DEL476-501)
T1 construct: expressed in transfected cells; host or cells: CHO cells, doxycycline-inducible expression under Blasticidin/Zeocin selection
T1 sequence (Q5XXA6 with tags, fused parts or gaps isoform Q5XXA6-5 DEL539-564): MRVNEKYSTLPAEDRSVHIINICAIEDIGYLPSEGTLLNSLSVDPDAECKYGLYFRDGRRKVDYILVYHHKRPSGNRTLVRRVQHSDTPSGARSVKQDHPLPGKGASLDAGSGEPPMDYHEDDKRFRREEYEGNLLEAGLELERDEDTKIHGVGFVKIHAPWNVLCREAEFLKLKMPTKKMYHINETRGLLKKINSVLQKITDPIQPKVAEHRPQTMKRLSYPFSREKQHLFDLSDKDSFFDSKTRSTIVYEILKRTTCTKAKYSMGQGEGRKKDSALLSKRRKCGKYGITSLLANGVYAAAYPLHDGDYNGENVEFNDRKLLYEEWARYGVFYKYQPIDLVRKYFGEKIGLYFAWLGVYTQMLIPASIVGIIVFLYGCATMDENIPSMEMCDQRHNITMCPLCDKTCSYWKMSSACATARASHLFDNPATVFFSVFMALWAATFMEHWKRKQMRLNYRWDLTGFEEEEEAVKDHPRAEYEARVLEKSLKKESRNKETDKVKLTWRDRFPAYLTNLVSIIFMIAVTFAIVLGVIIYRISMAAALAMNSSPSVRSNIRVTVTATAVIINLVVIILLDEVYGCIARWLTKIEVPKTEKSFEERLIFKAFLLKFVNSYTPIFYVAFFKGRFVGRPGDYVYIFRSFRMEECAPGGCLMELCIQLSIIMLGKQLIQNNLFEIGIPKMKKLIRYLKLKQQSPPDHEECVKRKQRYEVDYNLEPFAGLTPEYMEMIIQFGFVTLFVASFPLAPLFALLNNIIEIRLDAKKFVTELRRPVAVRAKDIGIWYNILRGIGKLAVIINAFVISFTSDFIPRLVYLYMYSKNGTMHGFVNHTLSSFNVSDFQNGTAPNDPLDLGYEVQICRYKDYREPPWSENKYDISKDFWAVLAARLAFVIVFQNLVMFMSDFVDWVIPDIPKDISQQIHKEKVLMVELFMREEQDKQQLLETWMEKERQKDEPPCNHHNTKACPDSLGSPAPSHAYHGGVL
Assay: Automated patch clamping (QPatch) assay to measure TMEM16A activity in whole-cell
Assay type: cell-based
Details: for EC50: CHO cells expressing human TMEM16A (abc), whole-cell automated patch clamp, Hill fit, read-out: TMEM16A QPATCH assay EC50 V3 EC50; for Emax: CHO, maximum current at highest dose relative to reference potentiator at maximal concentration (upper limit) and vehicle (lower limit), read-out: TMEM16A QPATCH assay EC50 V3 Assay Window (% TMEM16A max activation)
Protocol: Automated Patch Clamping Assay to Measure TMEM16A Activity in Whole-Cell
Chinese hamster ovary cells (CHO) cells expressing abc isoform of human TMEM16A channel (Ref) were grown in vented cell-culture flasks (Corning) containing cell culture medium (1×F-12 Ham, 10% FBS, 1% Penicillin-streptomycin, 5 μg/mL Blasticidin S HCl, 400 μg/mL Zeocin), maintained at 37° C. in an incubator with 5% C02, 95% 02 and 100% humidity. The cells were passaged every 2-3 days at 80-90% confluence by aspirating the cell culture medium, washing twice with 10 mL D-PBS then incubating with 4 mL Trypsin-EDTA for no longer than 5 minutes. Trypsin was neutralized with the addition of 32 mL growth medium to the cell suspension, the cells were counted using a viable-cell counter (Vi-CELL; Beckmann-Coulter) and new flasks were seeded at a cell density of 0.01, 0.02, or 0.05×10^6 cells per cm2 for 3, 2, or 1 day(s) growth, respectively. Cell suspension was diluted in the new 175 cm2 flask with 50 mL of growth medium. Doxycycline was used to induce the expression of TMEM16A channel protein and was added directly to the culture flask 18-24 hours in advance of assay at a final concentration of 1 μg/mL. Induced cells were washed with D-PBS and detached from their culture flasks by adding 10 mL of Detachin and incubating for 10 minutes. Once detached, 5 mL of QPatch assay medium (1×CHO-S-SFM II (Sigma), 25 mM HEPES) was added and the resultant cell suspension counted using the Vi-CELL viable cell counter. The optimal cell density for this QPatch assay is 2-5×1 06 cells/mL; re-adjusted as necessary with QPatch assay medium.
The ion channel activity of TMEM16A (abc) expressed in CHO cells was assed using an automated patch clamp system (Qpatch, Sophion). These systems use planar patch-clamp technology to enable high-resistance, continuous whole-cell recordings from multiple cells in parallel, whilst maintaining each individual cell as an isolated experiment. First, each well was primed with intracellular and extracellular solutions described below. Cells were spun down, washed and then resuspended using extracellular solution. Intracellular solution: 130 mM N-methyl-D-glucamine, 10 mM EGTA, 20 mM CaCl2, 1 mM MgCl2, 10 mM HEPES 10, 10 mM BAPTA, 99 mM Sucrose, 2 mM Mg-ATP, pH 7.3, 320 mOsm Extracellular solution: 130 mM N-methyl-D-glucamine, 10 mM EGTA, 20 mM CaCl2, 1 mM MgCl2, 10 mM HEPES 10, 10 mM BAPTA, 99 mM Sucrose, 2 mM Mg-ATP, pH 7.3, 320 mOsm. Resuspended cells were then added to each well and suction was applied from the intracellular side in order to position a cell on the chip aperture, form a high resistance (GO) seal and achieve a whole-cell recording configuration. Following successful whole cell access, cell membranes were maintained at a voltage of −70 mV until the voltage protocol is applied. From this voltage, membranes were depolarized to +70 mV for 1500 ms, and then hyperpolarized to […] before being depolarized again from −90 to +70 mV in a continuous ramp waveform. At the end of the ramp, the membrane voltage is stepped back to −70 mV until the next waveform was applied. Compounds were dissolved at 10 mM in 100% DMSO and then diluted into extracellular solution (0.3% DMSO final) to the desired final concentration. The assay lower and upper limit were defined as follow, average amplitude (nA) of the last 3 sweeps in the vehicle addition of each cell was considered the basal current (lower limit); the average maximum current response in 3 cells for a reference potentiator at maximal concentration (upper limit). Current values for each compound concentration were then plotted against […]. EC50 curves are fitted to concentration-response data using curve-fitting functions (Hill fit) within the QPatch software. Curve fitting is constrained between the lowest concentration (vehicle-only addition) and the highest current value measured within the concentration range. […]

| SMILES | EC50 | Emax |
| --- | --- | --- |
| CCC(CC)NC(=O)c1cnc(-c2cccc(-c3cc(C(=O)NC(C)C4CCC4)n[nH]3)c2)o1 (stereo not shown) [Example 3.10, 2-(3-(3-((1-Cyclobutylethyl)Carbamoyl)-1H-Pyrazol-5-Yl)Phenyl)-N-(Pentan-3-Yl)Oxazole-5-Carboxamide] | 90 nM | 95% |
| CCOC(=O)[C@H](Cc1ccccc1)NC(=O)c1cnc(-c2cccc(-c3cc(C(=O)NC(CC)CC)n[nH]3)c2)o1 [Example 1.38, (S)-Ethyl 2-(2-(3-(3-(Pentan-3-Ylcarbamoyl)-1 H-Pyrazol-5-yl)Phenyl)Oxazole-5-Carboxamido)-3-Phenylpropanoate] | 900 nM | 61% |
| CCC(CC)NC(=O)c1cnc(-c2cccc(-c3nc(C(=O)NC(CC)CC)n(CCN4Cc5ccccc5C4)n3)c2)o1 [Example 15.7, 2-(3-(1-(2-(Isoindolin-2-Yl)Ethyl)-5-(Pentan-3-Ylcarbamoyl)-1H-1,2,4-Triazol-3-Yl)Phenyl)-N-(Pentan-3-Yl)Oxazole-5-Carboxamide] | 320 nM | 103% |
| CCC(CC)NC(=O)c1cc(-c2cccc(-c3ncc(C(=O)N[C@H](C(=O)OC(C)(C)C)c4ccccc4)o3)c2)[nH]n1 [Example 1.37, (S)-Tert-Butyl 2-(2-(3-(3-(Pentan-3-Ylcarbamoyl)-1H-Pyrazol-5-yl)Phenyl)Oxazole-5-Carboxamido)-2-Phenylacetate] | 200 nM | 81% |
| CCC(CC)NC(=O)c1cnc(-c2cccc(-c3cc(C(=O)N[C@H](C)C4CCCCC4)n[nH]3)c2)o1 [Example 3.44, (R)-2-(3-(3-((1-Cyclohexylethyl)Carbamoyl)-1H-Pyrazol-5-Yl)Phenyl)-N-(Pentan-3-Yl)Oxazole-5-Carboxamide] | 230 nM | 82% |
| C[C@H](NC(=O)c1cnc(-c2cccc(-c3nnc(C(=O)NC4CCC(F)(F)CC4)[nH]3)c2)o1)C1CC1 [Example 13.4, (S)-N-(1-Cyclopropylethyl)-2-(3-(5-((4,4-Difluorocyclohexyl)Carbamoyl)-4H-1,2,4-Triazol-3-Yl)Phenyl)Oxazole-5-Carboxamide] | 940 nM | 80% |
| CCC(CC)NC(=O)c1cnc(-c2cccc(-c3cc(C(=O)NC4(C5CC5)CC4)n[nH]3)c2)o1 [Example 3.6, 2-(3-(3-([1,1′-Bi(Cyclopropan)]-1-Ylcarbamoyl)-1H-Pyrazol-5-Yl)Phenyl)-N-(Pentan-3-Yl)Oxazole-5-Carboxamide] | 170 nM | 122% |
| CCC(CC)NC(=O)c1cnc(-c2cccc(-c3cc(C(=O)NCC4CC4)n[nH]3)c2)o1 [Example 3.32, 2-(3-(3-((Cyclopropylmethyl)Carbamoyl)-1 H-Pyrazol-5-Yl)Phenyl)-N-(Pentan-3-Yl)Oxazole-5-Carboxamide] | 110 nM | 55% |
| COC(=O)C1(NC(=O)c2cnc(-c3cccc(-c4cc(C(=O)N[C@@H](C)C5CC5)[nH]n4)c3)o2)CCC1 [Example 1.49, (S)-Methyl 1-(2-(3-(5-((1-Cyclopropylethyl)Carbamoyl)-1H-Pyrazol-3-Yl)Phenyl)Oxazole-5-Carboxamido)Cyclobutanecarboxylate] | 400 nM | 70% |
| CCC(CC)NC(=O)c1cnc(-c2cccc(-c3cc(C(=O)N4CCCC4C(C)C)n[nH]3)c2)o1 (stereo not shown) [Example 3.31, 2-(3-(3-(2-Isopropylpyrrolidine-1-Carbonyl)-1H-Pyrazol-5-Yl)Phenyl)-N-(Pentan-3-Yl)Oxazole-5-Carboxamide] | 180 nM | 87% |
| CCC(CC)NC(=O)c1cnc(-c2cccc(-c3cc(C(=O)NCc4ccccc4)n[nH]3)c2)o1 [Example 3.16, 2-(3-(3-(Benzylcarbamoyl)-1H-Pyrazol-5-Yl)Phenyl)-N-(Pentan-3-Yl)Oxazole-5-Carboxamide] | 140 nM | 67% |
| CCOC(=O)Cn1nc(-c2cccc(-c3ncc(C(=O)NC(CC)CC)o3)c2)nc1C(=O)NC(CC)CC [Example 15.2, Ethyl 2-(5-(Pentan-3-Ylcarbamoyl)-3-(3-(5-(Pentan-3-Ylcarbamoyl)Oxazol-2-Yl)Phenyl)-1 H-1,2,4-Triazol-1-Yl)Acetate] | 80 nM | 80% |

The next lines start with the values.

| EC50 | Emax | SMILES |
| --- | --- | --- |
| 80 nM | 155% | CCC(CC)NC(=O)c1cnc(-c2cccc(-c3cc(C(=O)N[C@@H](C)C4CC4)n(CC(O)C(F)(F)F)n3)c2)o1 (stereo partly drawn) [Example 9.1, 2-(3-(5-(((S)-1-Cyclopropylethyl)Carbamoyl)-1-(3,3,3-Trifluoro-2-Hydroxypropyl)-1H-Pyrazol-3-Yl)Phenyl)-N-(Pentan-3-Yl)Oxazole-5-Carboxamide] |
| 20 nM | 87% | CCOC(=O)[C@@H](NC(=O)c1cnc(-c2cccc(-c3cc(C(=O)NC(C4CC4)C4CC4)[nH]n3)c2)o1)C(C)C [Example 1.12, (S)-Ethyl 2-(2-(3-(5-((Dicyclopropylmethyl)Carbamoyl)-1H-Pyrazol-3-yl)Phenyl)Oxazole-5-Carboxamido)-3-Methylbutanoate] |
| 70 nM | 96% | CCC(CC)NC(=O)c1cnc(-c2cccc(-c3cc(C(=O)NC4CCCCC4)n[nH]3)c2)o1 [Example 3.40, 2-(3-(3-(Cyclohexylcarbamoyl)-1 H-Pyrazol-5-Yl)Phenyl)-N-(Pentan-3-yl)Oxazole-5-Carboxamide] |
| 10 nM | 87% | CCC(CC)NC(=O)c1cnc(-c2cccc(-c3cc(C(=O)N[C@@H](CC(C)C)C(=O)OC)n[nH]3)c2)o1 [Example 3.27, (S)-Methyl 4-Methyl-2-(5-(3-(5-(Pentan-3-Ylcarbamoyl)Oxazol-2-Yl)Phenyl)-1H-Pyrazole-3-Carboxamido)Pentanoate] |
| 80 nM | 97% | CCOC(=O)[C@@H](NC(=O)c1cnc(-c2cccc(-c3nc(C(=O)NC(C4CC4)C(F)(F)F)n[nH]3)c2)o1)C(C)C (stereo partly shown) [Example 12.14] |
